The numbers were not newly measured in patent publication US20180228799A1, “Treatment for Neurological and Mental Disorders” (PSYCHOGENICS, INC., priority 2008, published 2018), which cites them from elsewhere.

For one data set, the target named is 5-HT1B (Homo sapiens, UniProt P28222). The note with it: Schipper et al.; cited from earlier work.
The next data set addresses T1, 5-HT2C receptors (Homo sapiens, UniProt P28335).
T1 sequence (P28335 33-458): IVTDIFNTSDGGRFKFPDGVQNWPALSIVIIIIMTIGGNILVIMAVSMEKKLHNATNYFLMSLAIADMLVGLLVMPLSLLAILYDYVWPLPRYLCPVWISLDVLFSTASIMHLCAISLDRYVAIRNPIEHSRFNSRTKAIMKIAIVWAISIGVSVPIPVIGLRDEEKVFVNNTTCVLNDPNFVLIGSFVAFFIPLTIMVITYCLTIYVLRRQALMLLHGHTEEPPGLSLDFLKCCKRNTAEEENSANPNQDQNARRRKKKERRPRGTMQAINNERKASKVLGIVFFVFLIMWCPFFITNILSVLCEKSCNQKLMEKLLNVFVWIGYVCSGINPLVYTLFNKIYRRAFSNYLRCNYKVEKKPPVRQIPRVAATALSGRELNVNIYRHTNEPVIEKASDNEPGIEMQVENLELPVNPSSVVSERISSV
As to conditions: relative to 5-HT1A, 5-HT1B; Schipper et al.; cited from earlier work.

Chain of 5-HT1B (P28222 whole entry, species assumed): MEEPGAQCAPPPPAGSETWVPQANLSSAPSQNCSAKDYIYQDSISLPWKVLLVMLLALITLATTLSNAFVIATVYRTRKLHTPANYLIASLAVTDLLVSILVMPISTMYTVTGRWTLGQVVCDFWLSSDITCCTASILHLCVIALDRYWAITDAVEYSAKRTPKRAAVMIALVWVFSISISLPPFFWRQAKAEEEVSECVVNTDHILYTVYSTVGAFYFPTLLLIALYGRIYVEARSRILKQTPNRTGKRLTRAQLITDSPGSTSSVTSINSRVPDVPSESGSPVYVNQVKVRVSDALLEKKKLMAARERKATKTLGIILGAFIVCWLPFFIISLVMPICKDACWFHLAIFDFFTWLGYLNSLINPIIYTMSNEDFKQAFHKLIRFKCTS

Turning to `c1cc2c(c(N3CCNCC3)c1)OCCO2` [Eltoprazine, 1-(2,3-dihydro-1,4-benzodioxanyl-5-yl) piperazine], at 5-HT1B, the “Binding affinity for 5-HT1B” value is recorded as “roughly equipotent affinity”. The “Binding affinity for 5-HT2C receptors” value on 5-HT2C receptors is on record as “somewhat lower affinity”.
